The source made the active and inactive calls. The calls are words filed in the database; no cut-off is given here.
Experiments:
Trypanosoma cruzi [1] = experiment: (§1) Antitrypanosomal activity against Trypanosoma cruzi MHOM/Pe/2011/Arequipa DTU 5 trypomastigotes infected in Balb/c mouse assessed as parasite-free oesophagus at 20 mg/kg, po pretreated once daily for 5 consecutive days starting from day 10 post infection followed by cyclophosphamide-induced immunosuppression on day 100 post infection measured on day 127 post infection by PCR method; format: functional
[2] = (§2) Hepatotoxicity in Balb/c mouse infected with Trypanosoma cruzi MHOM/Pe/2011/Arequipa DTU 5 trypomastigotes assessed as increase in ratio of serum ALT to GPT level at 20 mg/kg, po once daily for 5 consecutive days starting from day 75 post infection measured on day 81 post infection relative to control; format: toxicity, organism-based; conditions: in vivo
Trypanosoma cruzi [3] = experiment: as §1, with “as parasite-free spleen at 20” for “as parasite-free oesophagus at 20”, “from day 75 post infection” for “from day 10 post infection”; format: functional
Trypanosoma cruzi [4] = experiment: as §1, with “as parasite-free muscle at 20” for “as parasite-free oesophagus at 20”, “from day 75 post infection” for “from day 10 post infection”; format: functional
Trypanosoma cruzi [5] = experiment: as §1, with “as parasite-free heart at 20” for “as parasite-free oesophagus at 20”, “from day 75 post infection” for “from day 10 post infection”; format: functional
Trypanosoma cruzi [6] = experiment: Antitrypanosomal activity against Trypanosoma cruzi MHOM/Pe/2011/Arequipa DTU 5 epimastigotes assessed as change in mitochondrial membrane potential at IC25 after 72 hrs by Rho123 staining based flow cytometry relative to control; format: functional
Trypanosoma cruzi [7] = experiment: as §1, with “as parasite-free brain at 20” for “as parasite-free oesophagus at 20”, “from day 75 post infection” for “from day 10 post infection”; format: functional
Trypanosoma cruzi [8] = experiment: (§3) Antitrypanosomal activity against Trypanosoma cruzi MHOM/Pe/2011/Arequipa DTU 5 trypomastigotes infected in Balb/c mouse assessed as reduction in Ig-G level in serum at 20 mg/kg, po pretreated once daily for 5 consecutive days starting from day 75 post infection followed by cyclophosphamide-induced immunosuppression on day 100 post infection measured on day 127 post infection by ELISA; format: functional, organism-based
Trypanosoma cruzi [9] = experiment: Trypanocidal activity against Trypanosoma cruzi MHOM/Pe/2011/Arequipa DTU 5 amastigotes infected in African green monkey Vero cells assessed as reduction in number of amastigotes per infected cells at log -0.41 to 1.7 after 72 hrs by Giemsa-staining based assay; format: functional, organism-based
Trypanosoma cruzi [10] = experiment: as §1, with “bone marrow” for “oesophagus”; format: functional
Trypanosoma cruzi [11] = experiment: as §3, with “10” for “75”; format: functional, organism-based
Trypanosoma cruzi [12] = experiment: Antitrypanosomal activity against Trypanosoma cruzi MHOM/Pe/2011/Arequipa DTU 5 epimastigotes assessed as reduction in DNA and RNA levels at IC25 after 72 hrs by acridine orange staining based flow cytometry relative to control; format: functional
Trypanosoma cruzi [13] = experiment: Antitrypanosomal activity against Trypanosoma cruzi MHOM/Pe/2011/Arequipa DTU 5 trypomastigotes infected in Balb/c mouse assessed as reduction in Ig-G level in serum at 20 mg/kg, po once daily for 5 consecutive days starting from day 75 post infection measured on day 81 post infection by ELISA; format: functional, organism-based
Trypanosoma cruzi [14] = experiment: as §1, with “as parasite-free stomach at 20” for “as parasite-free oesophagus at 20”, “from day 75 post infection” for “from day 10 post infection”; format: functional
[15] = Nephrotoxicity in Balb/c mouse infected with Trypanosoma cruzi MHOM/Pe/2011/Arequipa DTU 5 trypomastigotes assessed as decrease in serum urea level at 20 mg/kg, po once daily for 5 consecutive days starting from day 75 post infection measured on day 127 post infection relative to control; format: toxicity, organism-based; conditions: in vivo
Trypanosoma cruzi [16] = experiment: as §1, with “as parasite-free adipose tissue at 20” for “as parasite-free oesophagus at 20”, “from day 75 post infection” for “from day 10 post infection”; format: functional
[17] = Nephrotoxicity in Balb/c mouse infected with Trypanosoma cruzi MHOM/Pe/2011/Arequipa DTU 5 trypomastigotes assessed as decrease in serum urea level at 20 mg/kg, po once daily for 5 consecutive days starting from day 10 post infection measured on day 16 post infection relative to control; format: toxicity, organism-based; conditions: in vivo
Trypanosoma cruzi [18] = experiment: Antitrypanosomal activity against Trypanosoma cruzi MHOM/Pe/2011/Arequipa DTU 5 trypomastigotes infected in Balb/c mouse assessed as reduction in parasitaemia reactivation at 20 mg/kg, po pretreated once daily for 5 consecutive days starting from day 10 post infection followed by cyclophosphamide-induced immunosuppression on day 100 post infection measured within 1 week post immunosuppression by Neubauer chamber method; format: functional; design: scale not given: the % may be the effect or the level left
[19] = Nephrotoxicity in Balb/c mouse infected with Trypanosoma cruzi MHOM/Pe/2011/Arequipa DTU 5 trypomastigotes assessed as decrease in serum urea level at 20 mg/kg, po once daily for 5 consecutive days starting from day 75 post infection measured on day 81 post infection relative to control; format: toxicity, organism-based; conditions: in vivo
[20] = Toxicity in Balb/c mouse assessed as death at 20 mg/kg, po once daily for 5 consecutive days starting from day 75 post infection; format: organism-based; conditions: in vivo
Trypanosoma cruzi [21] = experiment: as §1, with “as parasite-free bone marrow at 20” for “as parasite-free oesophagus at 20”, “from day 75 post infection” for “from day 10 post infection”; format: functional
[22] = as §2, with “change” for “increase”, “10” for “75”, “127” for “81”, “by biochemical analysis (reference value: 49 U/L)” for “relative to control”; format: toxicity, organism-based; conditions: in vivo
Trypanosoma cruzi [23] = experiment: as §1, with “adipose tissue” for “oesophagus”; format: functional
Trypanosoma cruzi [24] = experiment: Antitrypanosomal activity against Trypanosoma cruzi MHOM/Pe/2011/Arequipa DTU 5 trypomastigotes infected in Balb/c mouse assessed as reduction in Ig-G level in serum at 20 mg/kg, po once daily for 5 consecutive days starting from day 10 post infection measured on day 16 post infection by ELISA; format: functional, organism-based
Trypanosoma cruzi [25] = experiment: as §1, with “heart” for “oesophagus”; format: functional
Trypanosoma cruzi [26] = experiment: as §1, with “stomach” for “oesophagus”; format: functional
Trypanosoma cruzi [27] = experiment: Antitrypanosomal activity against Trypanosoma cruzi MHOM/Pe/2011/Arequipa DTU 5 trypomastigotes infected in Balb/c mouse assessed as reduction in splenomegaly at 20 mg/kg, po once daily for 5 consecutive days starting from day 75 post infection measured on day 127 post infection relative to control; format: functional; design: scale not given: the % may be the effect or the level left
Trypanosoma cruzi [28] = experiment: as §1, with “lungs” for “oesophagus”; format: functional
Trypanosoma cruzi [29] = experiment: as §1, with “spleen” for “oesophagus”; format: functional

Structure (SMILES)	Activity (Trypanosoma cruzi [1])	Activity [2]	Activity (Trypanosoma cruzi [3])	Activity (Trypanosoma cruzi [4])	Activity (Trypanosoma cruzi [5])	Activity (Trypanosoma cruzi [6])	Activity (Trypanosoma cruzi [7])	Activity (Trypanosoma cruzi [8])	Activity (Trypanosoma cruzi [9])	Activity (Trypanosoma cruzi [10])	Activity (Trypanosoma cruzi [11])	inhibition (INH) (Trypanosoma cruzi [12])	Activity (Trypanosoma cruzi [13])	Activity (Trypanosoma cruzi [14])	Activity [15]	Activity (Trypanosoma cruzi [16])	Activity [17]	Activity (Trypanosoma cruzi [18])	Activity [19]	Activity [20]	other results
CCCCCCCCCCCCCCCCNc1c(N(C)CCCN(C)C)c(=O)c1=O	67%	20 to 30 U/L	78%	78%	78%	-80.61%	78%	Active	Active	67%	Active	49.05%	inactive	78%	10 to 20 mg/dL	78%	10 to 20 mg/dL	26%	10 to 20 mg/dL	Non-Toxic	Activity (Trypanosoma cruzi [21]): 78%; Activity [22]: 49 U/L; Activity (Trypanosoma cruzi [23]): 67%; Activity (Trypanosoma cruzi [24]): Active; Activity (Trypanosoma cruzi [25]): 67%; Activity (Trypanosoma cruzi [26]): 67%; Activity (Trypanosoma cruzi [27]): 55%; Activity (Trypanosoma cruzi [28]): 67%; Activity (Trypanosoma cruzi [29]): 67%
CCCCCCNc1c(N(C)CCCN(C)C)c(=O)c1=O	inactive	20 to 30 U/L	inactive	inactive	inactive	4.69%	inactive	inactive	Active	inactive	inactive	31.13%	inactive	inactive	10 to 20 mg/dL	inactive	10 to 20 mg/dL	inactive	10 to 20 mg/dL	Non-Toxic	Activity (Trypanosoma cruzi [21]): inactive; Activity [22]: 49 U/L; Activity (Trypanosoma cruzi [23]): inactive; Activity (Trypanosoma cruzi [24]): inactive; Activity (Trypanosoma cruzi [25]): inactive; Activity (Trypanosoma cruzi [26]): inactive; Activity (Trypanosoma cruzi [27]): Active; Activity (Trypanosoma cruzi [28]): inactive; Activity (Trypanosoma cruzi [29]): inactive
O=C(Cn1ccnc1[N+](=O)[O-])NCc1ccccc1 [BENZNIDAZOLE]	33%	20 to 30 U/L	55%	55%	55%	-35.38%	55%	Active	Active	33%	Active	22.38%	inactive	55%	20 to 30 mg/dL	55%	20 to 30 mg/dL	75%	20 to 30 mg/dL	Non-Toxic	Activity (Trypanosoma cruzi [21]): 55%; Activity [22]: 49 U/L; Activity (Trypanosoma cruzi [23]): 33%; Activity (Trypanosoma cruzi [24]): Active; Activity (Trypanosoma cruzi [25]): 33%; Activity (Trypanosoma cruzi [26]): 33%; Activity (Trypanosoma cruzi [27]): Active; Activity (Trypanosoma cruzi [28]): 33%; Activity (Trypanosoma cruzi [29]): 33%
